Data set [1] relates to cryopreserved hepatocytes. In words: Rank order of stability in cryopreserved hepatocytes across species. In kind it is in vitro ADME, human, mouse, rat, dog, minipig and monkey. To be noted: 10 μM, up to 4 hours. As for the experimental part: The formation of SRA737-related metabolites was determined in cryopreserved hepatocytes from human, mouse, rat, dog, minipig and monkey samples after incubation with SRA737 at a nominal concentration of 10 μM for up to 4 hours. […] In the human hepatocyte preparation, approximately 67% of the parent remained after 4 hours of incubation compared to 75% and 7% in the rat and minipig preparations, respectively. Eight human SRA737 metabolites were observed. All SRA737 metabolites formed by human hepatocytes were also formed by monkey hepatocytes. Six metabolites were present at equal or greater abundance in the monkey.

Another data set concerns CD4+ and CD8+ cells. In words: CD4 and CD8 IHC staining in MC38 tumors. Type of data set: in vivo, mouse. To be noted: after 14 days, SRA737 7-days-on/7-days-off, antibody Days 3, 7 and 11. As for the experimental part:
Measurements were taken post treatment on day 15.
For immunohistochemistry, cryosections (8 μm) of tumor tissues were fixed with acetone and stained with antibody against mouse CD4 (Sinobiological, Cat. no. 50134-R001) and CD8 (eBioscience, Cat. No. 14-0808-82) and horseradish peroxidase-conjugated secondary antibody. The image of the entire stained tumor section was scanned with an Olympus BX41 microscope and a semi-quantitative immunohistochemical score was determined by visual examination of the entire stained section of the tumor. The score between 0-6 was assigned by taking into consideration the intensity of positive staining within the tumor section and the prevalence of positive staining within the entire tumor section.
The MC38 tumors were then harvested after 14 days of treatment with SRA737 monotherapy and its combination therapy with an […] (Days 3, 7 and 11) according to a modified dosing regimen of 7-days-on/7-days-off to determine the infiltration of CD4+ and CD8+ cells by immunohistochemistry staining. […] The tumor growth inhibition under this altered dosing regimen was 61% in SRA737 monotherapy and 63% in the combination therapy of SRA737 and anti-PD-1. […]

Another data set relates to 5637. Briefly: Cell viability, bladder cancer line 5637. Type of data set: cell-based.
A short description of data set [2]: Phase 1 clinical study, SRA737 in combination with gemcitabine, dose escalation. In kind it is in vivo. To be noted: human, mean. As for the experimental part:
A Phase 1 clinical trial was conducted in ‘all comers,’ i.e. no genetic selection was performed, to establish safety, tolerability and pharmacokinetics for SRA737 administered in combination with gemcitabine (“Dose Escalation Phase”). Cohorts consisting initially of a single subject received escalating doses of SRA737, starting in Cohort 1 with 40 mg/day administered orally on days 2, 3, 9, 10, 16, and 17 of each 28-day cycle. Cohorts also received various doses of gemcitabine, starting in Cohort 1 with 300 mg/m^2/day administered IV over 30 minutes on days 1, 8, and 15 of each 28-day cycle.
FIG. 5 presents a summary of dosing amounts for the cohorts tested. In the Dose Escalation Phase, a total of 55 subjects received SRA737 in 13 dose escalation cohorts at doses of 40 to 600 mg SRA737 combined with LDG doses of 50 to 300 mg/m^2.

A further data set concerns MC38. Briefly: MC38 colon flank tumor growth in immunocompetent mice. Type of data set: in vivo, mouse. As for the experimental part: (§1) Tumors were evaluated twice weekly for the duration of the study. Tumor volumes were measured on all mice three times per week and calculated (width^2×length×0.4) using manual calipers. Once the average tumor size was in the range of 120-150 mm^3, mice were randomized into dosing groups using stratified sampling by assigning three animals per group for short-term reverse-phase protein array analysis and long-term treatment. Dosing schedules and duration varied depending on the study. Mice were weighed three times per week for the duration of the study, and a decrease in body weight >15% was considered indicative of a toxic dose. The Student t-test was used to determine statistical significance between compound- and vehicle-treated groups.
Tumors cells were implanted into the flank of immunocompetent mice. Once the volumes of the tumor reached 150-200 mm^3, the mice were randomized and treated with either monotherapy of SRA737 at 100 mg/kg for 5-days-on/2-days-off p.o., anti-PD1 BIW at 10 mg/kg i.p. or the combination thereof.

The next data set deals with T1, Chk1 (Homo sapiens, UniProt O14757).
T1 construct: endogenous in cells
Briefly: In vitro Chk1 autophosphorylation and potentiation of genotoxic agents. In kind it is cell-based.

The subject of the next data set is RPP tumor. Briefly: Flank RPP (SCLC) tumor growth in B6129F1 immunocompetent mice. Particulars: anti-PD-L1 300 μg 1-day-on/6-days-off. Type of data set: in vivo, mouse. As for the experimental part:
as §1
[…] 15A.

Another data set concerns EMT6/P. Briefly: Micronuclei assay, EMT6/P. In kind it is cell-based. To be noted: 1 μM, 24 hours or 48 hours. As for the experimental part: H69 cells were cultured as discussed earlier and treated with or without SRA737 (1 μM). Cytochalasin B was added at 20th hour to each culture to give a final concentration of 3 μg/ml and the culture was incubated at 37° C. for up to 24 hrs. After 24 hrs incubation, the cells were centrifuged at 1000 rpm for 5 min. The supernatant was removed and the pellet was treated with weak hypotonic solution (0.075 M KCl/0.9% Saline, 1:9) and incubated at 37° C. for 5 min. After this, the cells were centrifuged and the pellets were fixed in fresh fixative (methanol:acetic acid, 3:1). Cells were dropped onto glass slides were prepared and stained with ProLong® Gold Antifade Mountant with DAPI. In the case of EMT-6 cells, micronuclei formation assays were performed at Phenovista Biosciences, San Diego. The cells were treated with either 1 μM or 5 μM SRA737 for 24h followed by mixing with 4% PFA for 20 minutes at RT directly in the culture wells, washing with PBS and staining with Hoechst (1:1000). The plates were imaged at 40× using the Thermo Fisher Scientific CellInsight CX7 imaging system and the micronuclei algorithm was adjusted to score all nuclei that are <55% of the size of the main nucleus. A total of 25 fields per well were imaged and the data was averaged across 8 replicates.
SRA737 was also evaluated for induced cytogenetic stress using a micronuclei (MN) assay.

The mark [3] stands for this setting: 600 mg, Day 10, combination with gemcitabine.

T1 sequence (O14757 whole entry, species assumed): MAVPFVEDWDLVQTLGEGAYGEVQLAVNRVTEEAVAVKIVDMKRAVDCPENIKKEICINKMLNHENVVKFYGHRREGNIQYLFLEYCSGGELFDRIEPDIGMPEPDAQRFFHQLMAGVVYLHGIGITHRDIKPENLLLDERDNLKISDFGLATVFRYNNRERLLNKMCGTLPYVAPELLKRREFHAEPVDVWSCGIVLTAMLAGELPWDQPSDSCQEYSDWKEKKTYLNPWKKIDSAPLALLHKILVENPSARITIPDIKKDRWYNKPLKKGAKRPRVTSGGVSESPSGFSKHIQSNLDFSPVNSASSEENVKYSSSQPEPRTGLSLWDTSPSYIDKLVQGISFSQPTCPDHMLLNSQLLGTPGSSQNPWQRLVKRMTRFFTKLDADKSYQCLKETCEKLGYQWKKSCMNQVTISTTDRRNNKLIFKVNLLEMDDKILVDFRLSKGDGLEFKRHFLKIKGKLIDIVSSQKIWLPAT

As to `N#Cc1cnc(Nc2cc(NCC3CNCCO3)c(C(F)(F)F)cn2)cn1` (stereo not drawn) [SRA737, 5-[[4-[[morpholin-2-yl]methylamino]-5-(trifluoromethyl)-2-pyridyl]amino]pyrazine-2-carbonitrile], the “rank order of stability from most stable to least stable” value in data set [1] is listed as “rat≈mouse >monkey≈human >>dog >>minipig”. The “infiltration of CD4+ and CD8+ cells into the tumors” value in the data set with CD4+ and CD8+ cells is “significant increase”. In the data set with 5637, the 50% inhibitory concentration (IC50) (as a rule, the concentration that inhibits the measured activity by half) is 2100 nM. Moreover, the AUC0-24 in data set [2] (40 mg, Day −7) amounted to 637 ng·h/mL. Besides, the Cmax (commonly the peak of the concentration-time curve) in data set [2] (80 mg, Day −7) is 146 ng/mL; in data set [2] (300 mg, Day −7) it was 995 ng/mL; in data set [2] (setting [3]) it was 2,109 ng/mL. Further, the AUC0-12 in data set [2] (setting [3]) is 11,860 ng · h/mL. For the same molecule, the T1/2 in data set [2] (600 mg, Day −7) turned out to be 11.1 h. The TGI (in general, the reduction of tumour growth relative to the control group) with MC38 (SRA737 100 mg/kg 5-days-on/2-days-off p.o., anti-PD1 BIW 10 mg/kg i.p.) is 48%. The tumor growth inhibition in the data set with MC38 (altered regimen SRA737 7-days-on/7-days-off, anti-PD-1 Days 3, 7 and 11) is listed as 61%. Further, the “potentiation of the cytotoxicity of genotoxic chemotherapeutic agents and targeted agents” value at Chk1 was “dose-dependent potentiation”. Also, the “anti-tumor response (tumor growth)” value with RPP tumor (SRA737 100 mg/kg 3-days-on/4-days-off or 5-days-on/2-days-off) is listed as “significant reduction in tumor growth”. In the data set with RPP tumor (LDG 40 mg/kg 1-day-on/6-days-off, SRA737 100 mg/kg 2-day-on/5-days-off), the “anti-tumor effect (tumor volume)” value is “no significant anti-tumor effect”. Besides, the micronuclei formation entry with EMT6/P was “led to micronuclei formation”.

For the origin of these results see patent publication US20220184091A1, “Methods of Treating Cancer with Chk1 Inhibitors” (Sierra Oncology, Inc., priority 2019, published 2022).
